From patent US20100093723A1, “HETEROCYCLYL AND CYCLOALKYL SUBSTITUTED THIENO[2,3 d]PYRIMIDINE AND THEIR USE AS ADENOSINE A2a RECEPTOR ANTAGONISTS” (priority 2008, published 2010)
pKi: −log10 of the molar value.

Legend:
[1] = target: T1, human adenosine A2a receptor (Homo sapiens, UniProt P29274); test: Adenosine A2a Receptor Functional Assay (A2AGAL2); format: cell-based; conditions: CHO-K1 cells overexpressing human A2a receptor, cAMP inducible beta-galactosidase reporter, 15 nM NECA agonist challenge; read-out: A2AGAL2_v4 Ki
T1 construct: expressed in transfected cells; host or cells: CHO-K1
T1 sequence (P29274 whole entry): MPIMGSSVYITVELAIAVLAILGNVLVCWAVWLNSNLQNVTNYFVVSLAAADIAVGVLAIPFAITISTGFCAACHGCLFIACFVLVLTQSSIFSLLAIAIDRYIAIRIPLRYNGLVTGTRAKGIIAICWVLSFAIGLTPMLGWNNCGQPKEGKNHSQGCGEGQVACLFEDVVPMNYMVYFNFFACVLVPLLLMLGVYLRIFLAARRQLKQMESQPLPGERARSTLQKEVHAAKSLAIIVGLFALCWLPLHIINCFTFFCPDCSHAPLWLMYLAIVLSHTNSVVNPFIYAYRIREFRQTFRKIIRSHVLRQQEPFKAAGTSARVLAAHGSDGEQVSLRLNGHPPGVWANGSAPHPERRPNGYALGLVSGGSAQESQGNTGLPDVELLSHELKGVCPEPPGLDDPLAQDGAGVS
Experimental: Adenosine A2a Receptor Functional Assay (A2AGAL2)
(§1) To initiate the functional assay, cryopreserved CHO-K1 cells overexpressing the human adenosine A2a receptor and containing a cAMP inducible beta-galactosidase reporter gene were thawed, centrifuged, DMSO containing media removed, and then seeded with fresh culture media into clear 384-well tissue culture treated plates (BD #353961) at a concentration of 10K cells/well. Prior to assay, these plates were cultured for two days at 37° C., 5% CO2, 90% Rh. On the day of the functional assay, culture media was removed and replaced with 45 uL assay medium (Hams/F-12 Modified (Mediatech # 10-080CV) supplemented w/0.1% BSA). Test compounds were diluted and 11 point curves created at a 1000× concentration in 100% DMSO. Immediately after addition of assay media to the cell plates, 50 nL of the appropriate test compound antagonist or agonist control curves were added to cell plates using a Cartesian Hummingbird. Compound curves were allowed to incubate at room temperature on cell plates for approximately 15 minutes before addition of a 15 nM NECA (Sigma E2387) agonist challenge (5 uL volume). A control curve of NECA, a DMSO/Media control, and a single dose of Forskolin (Sigma F3917) were also included on each plate. After additions, cell plates were allowed to incubate at 37° C., 5% CO2, 90% Rh for 5.5-6 hours. After incubation, media was removed, and cell plates were washed 1×50 uL with DPBS w/o Ca & Mg (Mediatech 21-031-CV). Into dry wells, 20 uL of 1× Reporter Lysis Buffer (Promega E3971 (diluted in dH2O from 5× stock)) was added to each well and plates frozen at −20° C. overnight. For β-galactosidase enzyme colorimetric assay, plates were thawed out at room temperature and 20 μL 2× assay buffer (Promega) was added to each well. Color was allowed to develop at 37° C., 5% CO2, 90% Rh for 1-1.5 h or until reasonable signal appeared. The colorimetric reaction was stopped with the addition of 60 μL/well 1M sodium carbonate. Plates were counted at 405 nm on a SpectraMax Microplate Reader (Molecular Devices). Data was analyzed in Microsoft Excel and IC/EC50 curves were fit using a standardized macro.

[2] = target: T2, human adenosine A1 receptor (Homo sapiens, UniProt P30542); test: Adenosine A1 Receptor Functional Assay (A1GAL2); format: cell-based; conditions: CHO-K1 cells overexpressing human A1 receptor, cAMP inducible beta-galactosidase reporter, 4 nM r-PIA/1 uM Forskolin agonist challenge; read-out: A1GAL2_v3 Ki
T2 construct: expressed in transfected cells; host or cells: CHO-K1
T2 sequence (P30542 1-326): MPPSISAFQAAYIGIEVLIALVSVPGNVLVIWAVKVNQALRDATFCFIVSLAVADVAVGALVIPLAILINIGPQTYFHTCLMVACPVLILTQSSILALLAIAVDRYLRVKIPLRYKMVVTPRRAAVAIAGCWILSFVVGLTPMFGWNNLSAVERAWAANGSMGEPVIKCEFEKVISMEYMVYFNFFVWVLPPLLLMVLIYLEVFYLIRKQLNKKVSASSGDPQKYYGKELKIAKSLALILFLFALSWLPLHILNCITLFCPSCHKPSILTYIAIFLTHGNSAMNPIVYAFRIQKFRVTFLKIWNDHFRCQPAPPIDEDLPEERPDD
Experimental: Adenosine A1 Receptor Functional Assay (A1GAL2)
as §1, with “adenosine A1” for “adenosine A2a”, “a 4” for “a 15”, “nM r-PIA” for “nM NECA”, “(Sigma P4532)/1 uM Forskolin (Sigma F3917)” for “(Sigma E2387)”, “of r-PIA in 1 uM Forskolin,” for “of NECA,”, “Forskolin” for “Forskolin (Sigma F3917)”

[3] = target: T3, human A2a adenosine receptor (Homo sapiens, UniProt P29274); test: Ligand Binding Assay for Adenosine A2a Receptor (A2A-B); conditions: plasma membrane of HEK293 cells, radioligand [3H]CGS21680; read-out: A2A-B_v3 Ki
T3 construct: purchased PerkinElmer RB-HA2a; host or cells: HEK293 cell plasma membranes
T3 sequence (P29274 whole entry): as the sequence (P29274 whole entry) above
Experimental: Ligand Binding Assay for Adenosine A2a Receptor (A2A-B)
Ligand binding assay of adenosine A2a receptor was performed using plasma membrane of HEK293 cells containing human A2a adenosine receptor (PerkinElmer, RB-HA2a) and radioligand [^3H]CGS21680 (PerkinElmer, NET1021). Assay was set up in 96-well polypropylene plate in total volume of 200 μL by sequentially adding 20 μL 1:20 diluted membrane, 130 μL assay buffer (50 mM Tris.HCl, pH7.4 10 mM MgCl2, 1 mM EDTA) containing [^3H] CGS21680, 50 μL diluted compound (4×) or vehicle control in assay buffer. Nonspecific binding was determined by […] NECA. Reaction was carried out at room temperature for 2 hours before filtering through 96-well GF/C filter plate pre-soaked in 50 mM Tris.HCl, pH7.4 containing 0.3% polyethylenimine. Plates were then washed 5 times with cold 50 mM Tris.HCl, pH7.4, dried and sealed at the bottom. Microscintillation fluid 30 μL was added to each well and the top sealed. Plates were counted on Packard Topcount for [^3H]. Data was analyzed in Microsoft Excel and GraphPad Prism programs. (Varani, K.; Gessi, S.; Dalpiaz, A.; Borea, P. A. British Journal of Pharmacology, 1996, 117, 1693)

Row | SMILES | pKi [1] | pKi [2] | pKi [3]
1 | Cc1ccc(-c2nc(N)c3cc(CC4CCCCC4)sc3n2)o1 [Example 1, 6-Cyclohexylmethyl-2-(5-methyl-furan-2-yl)-thieno[2,3-d]pyrimidin-4-ylamine] | 7.11 | 5.42 | 7.47
2 | CC(C)(C)c1ccc(-c2nc(N)c3cc(CCN4CCOCC4)sc3n2)s1 [Example 2, 2-(5-tert-Butyl-thiophen-2-yl)-6-(2-morpholin-4-yl-ethyl)-thieno[2,3-d]pyrimidin-4-ylamine] | < 5.83 | < 5.88 | 
3 | Nc1nc(-c2ncco2)nc2sc(CCN3CCOCC3)cc12 [Example 3, 6-(2-Morpholin-4-yl-ethyl)-2-oxazol-2-yl-thieno[2,3-d]pyrimidin-4-ylamine] | 6.62 | 4.73 | 

Next, values leading:

Row | pKi [1] | pKi [2] | pKi [3] | SMILES
4 | 6.72 | 5.63 |  | Cc1csc(-c2nc(N)c3cc(CCN4CCOCC4)sc3n2)n1 [Example 4, 2-(4-Methyl-thiazol-2-yl)-6-(2-morpholin-4-yl-ethyl)-thieno[2,3-d]pyrimidin-4-ylamine]
5 | 7.40 | 6.23 |  | N#Cc1cccc(-c2nc(N)c3cc(CCN4CCOCC4)sc3n2)c1 [Example 5, 3-[4-Amino-6-(2-morpholin-4-yl-ethyl)-thieno[2,3-d]pyrimidin-2-yl]-benzonitrile]
6 | 7.53 | 6.50 |  | N#Cc1cccc(-c2nc(N)c3cc([C@H](O)CN4CCOCC4)sc3n2)c1 [Example 6, 3-[4-Amino-6-(1-hydroxy-2-morpholin-4-yl-ethyl)-thieno[2,3-d]pyrimidin-2-yl]-benzonitrile]
7 | 6.71 | 6.07 |  | C[C@@H]1CCC[C@H](C)N1C[C@@H](O)c1cc2c(N)nc(-c3cccc(C#N)c3)nc2s1 [Example 7, 3-{4-Amino-6-[2-(2,6-dimethyl-piperidin-1-yl)-1-hydroxy-ethyl]-thieno[2,3-d]pyrimidin-2-yl}-benzonitrile]
